Consider 23 molecules from patent US7183415B2, “Quinoline compound” (Takeda Pharmaceutical Company Limited, priority 2001, dated 2007).

The melting point is the temperature, or range, at which the solid turns liquid.

`Cc1cc2cc(CN3CCCC3)cnc2cc1NC(=O)c1ccc(-c2ccccc2Cl)cc1.Cl` showed a melting point of 283 °C.
As for `Cc1c(NC(=O)c2ccc(-c3ccc4c(c3)OCO4)cc2)ccc2cc(CN3CCCC3)cnc12` (hydrate or solvate) [Example 105, 4-(1,3-benzodioxol-5-yl)-N-[8-methyl-3-(1-pyrrolidinylmethyl)-7-quinolinyl]benzamide], the figure is 171 to 172 °C; as for `Cc1c(NC(=O)c2ccc(-c3cc4ccccc4o3)cc2)ccc2cc(CN3CCCC3)cnc12` (hydrate or solvate) [Example 106, 4-(1-benzofuran-2-yl)-N-[8-methyl-3-(1-pyrrolidinylmethyl)-7-quinolinyl]benzamide], 217 to 218 °C.
The result for `Cc1c(NC(=O)c2ccc(-c3ccccc3Cl)cc2)ccc2cc(CN3CCCC3)cnc12` (hydrate or solvate) [Example 108, 2′-chloro-N-[8-methyl-3-(1-pyrrolidinylmethyl)-7-quinolinyl][1,1′-biphenyl]-4-carboxamide] reads 128 to 129 °C.
With `CSc1ccc(-c2ccc(C(=O)Nc3ccc4cc(CN5CCCC5)cnc4c3C)cc2)cc1` (hydrate or solvate) [Example 110, N-[8-methyl-3-(1-pyrrolidinylmethyl)-7-quinolinyl]-4′-(methylsulfanyl)[1,1′-biphenyl]-4-carboxamide], the melting point lay in the range of 206 to 208 °C.
The result for `Cc1c(NC(=O)c2ccc(-c3ccc4c(c3)OCCO4)cc2)ccc2cc(CN3CCCC3)cnc12` (hydrate or solvate) [Example 115, 4-(2,3-dihydro-1,4-benzodioxin-6-yl)-N-[8-methyl-3-(1-pyrrolidinylmethyl)-7-quinolinyl]benzamide] reads 187 to 188 °C.
As for `CC(=O)c1ccc(-c2ccc(C(=O)Nc3ccc4cc(CN5CCCC5)cnc4c3C)cc2)s1` (hydrate or solvate) [Example 119, 4-(5-acetyl-2-thienyl)-N-[8-methyl-3-(1-pyrrolidinylmethyl)-7-quinolinyl]benzamide], the figure is 194 to 195 °C; as for `Cc1c(NC(=O)c2ccc(-c3cc4ccccc4s3)cc2)ccc2cc(CN3CCCC3)cnc12` (hydrate or solvate) [Example 120, 4-(1-benzothien-2-yl)-N-[8-methyl-3-(1-pyrrolidinylmethyl)-7-quinolinyl]benzamide], 217 to 218 °C.
Regarding `Cc1c(NC(=O)c2ccc(OCc3ccc(F)cc3)cc2)ccc2cc(CN3CCCC3)cnc12` (hydrate or solvate) [Example 123, 4-[(4-fluorobenzyl)oxy]-N-[8-methyl-3-(1-pyrrolidinylmethyl)-7-quinolinyl]benzamide], the melting point fell in the range of 177 to 178 °C.
`Cc1c(NC(=O)c2ccc(-c3ccc(Cl)cc3Cl)cc2F)ccc2cc(CN3CCCC3)cnc12` (hydrate or solvate) [Example 137, 2′,4′-dichloro-3-fluoro-N-[8-methyl-3-(1-pyrrolidinylmethyl)-7-quinolinyl][1,1′-biphenyl]-4-carboxamide] yielded a melting point of 162 to 163 °C.
The result for `Cc1c(NC(=O)c2ccc(-c3ccc(C(F)(F)F)cc3)cc2F)ccc2cc(CN3CCCC3)cnc12` (hydrate or solvate) [Example 138, 3-fluoro-N-[8-methyl-3-(1-pyrrolidinylmethyl)-7-quinolinyl]-4′-(trifluoromethyl)[1,1′-biphenyl]-4-carboxamide] reads 202 to 203 °C; that for `Cc1c(NC(=O)c2ccc(-c3ccc4c(c3)OCO4)cc2F)ccc2cc(CN3CCCC3)cnc12` (hydrate or solvate) [Example 141, 4-(1,3-benzodioxol-5-yl)-2-fluoro-N-[8-methyl-3-(1-pyrrolidinylmethyl)-7-quinolinyl]benzamide], 181 to 182 °C; that for `Cc1c(NC(=O)c2ccc(-c3ccc(Cl)s3)cc2F)ccc2cc(CN3CCCC3)cnc12` (hydrate or solvate) [Example 143, 4-(5-chloro-2-thienyl)-2-fluoro-N-[8-methyl-3-(1-pyrrolidinylmethyl)-7-quinolinyl]benzamide], 160 to 162 °C.
In turn, `Cc1c(NC(=O)c2ccc(-c3ccccc3)cc2F)ccc2cc(CN3CCCCC3)cnc12` (hydrate or solvate) [Example 169, 3-fluoro-N-[8-methyl-3-(1-piperidinylmethyl)-7-quinolinyl][1,1′-biphenyl]-4-carboxamide] gave a melting point of 187 to 188 °C.
As for `Cc1c(NC(=O)c2ccc(-c3ccc(Cl)s3)cc2F)ccc2cc(CN3CCCCC3)cnc12` (hydrate or solvate) [Example 172, 4-(5-chloro-2-thienyl)-2-fluoro-N-[8-methyl-3-(1-piperidinylmethyl)-7-quinolinyl]benzamide], the figure is 205 to 206 °C; as for `Cc1c(NC(=O)c2ccc(-c3ccccc3)c(F)c2)ccc2cc(CN3CCCCC3)cnc12` (hydrate or solvate) [Example 175, 2-fluoro-N-[8-methyl-3-(1-piperidinylmethyl)-7-quinolinyl][1,1′-biphenyl]-4-carboxamide], 138 to 139 °C.
The result for `Cc1c(NC(=O)c2ccc(-c3ccc(F)cc3)c(F)c2)ccc2cc(CN3CCCCC3)cnc12` (hydrate or solvate) [Example 176, 2,4′-difluoro-N-[8-methyl-3-(1-piperidinylmethyl)-7-quinolinyl][1,1′-biphenyl]-4-carboxamide] reads 161 to 162 °C; that for `Cc1c(NC(=O)c2ccc(-c3ccc(Cl)s3)cc2)ccc2cc(CN3CCCCCC3)cnc12` (hydrate or solvate) [Example 181, N-[3-(1-azepanylmethyl)-8-methyl-7-quinolinyl]-4-(5-chloro-2-thienyl)benzamide], 186 to 187 °C.
As for `Cc1c(NC(=O)c2ccc(-c3ccccc3)cc2F)ccc2cc(CN3CCCCCC3)cnc12` (hydrate or solvate) [Example 183, N-[3-(1-azepanylmethyl)-8-methyl-7-quinolinyl]-3-fluoro[1,1′-biphenyl]-4-carboxamide], the figure is 151 to 153 °C.
Turning to `Cc1c(NC(=O)c2ccc(-c3ccc(Cl)s3)cc2F)ccc2cc(CN3CCCCCC3)cnc12` (hydrate or solvate) [Example 186, N-[3-(1-azepanylmethyl)-8-methyl-7-quinolinyl]-4-(5-chloro-2-thienyl)-2-fluorobenzamide], the melting point was 166 to 167 °C.
The result for `Cc1c(NC(=O)c2ccc(-c3ccccc3)c(F)c2)ccc2cc(CN3CCCCCC3)cnc12` (hydrate or solvate) [Example 188, N-[3-(1-azepanylmethyl)-8-methyl-7-quinolinyl]-2-fluoro[1,1′-biphenyl]-4-carboxamide] reads 129 to 130 °C; that for `Cc1c(NC(=O)c2ccc(-c3ccc(F)cc3)c(F)c2)ccc2cc(CN3CCCCCC3)cnc12` (hydrate or solvate) [Example 189, N-[3-(1-azepanylmethyl)-8-methyl-7-quinolinyl]-2,4′-difluoro[1,1′-biphenyl]-4-carboxamide], 162 to 163 °C.
As for `COc1ccc(-c2ccc(C(=O)Nc3ccc4cc(CN5CCCCCC5)cnc4c3C)cc2F)cc1` (hydrate or solvate) [Example 190, N-[3-(1-azepanylmethyl)-8-methyl-7-quinolinyl]-2-fluoro-4′-methoxy[1,1′-biphenyl]-4-carboxamide], the figure is 160 to 161 °C.
